According to the supplement of paper PMC10331698:
± gives the standard deviation of the averaged measurements.

What was measured:
Assay in all cases: level (log10 ratio to DMSO vehicle control); higher = higher biomarker level / cell amount than vehicle control
[1] = compound: FC(F)(F)COC(OCC(F)(F)F)OCC(F)(F)F [tris(Trifluoroethoxy)methane]; details: in DMSO
Method: (§1)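 BioMAP Diversity Plus panel of 12 human primary cell co-culture systems (3C, 4H, LPS, SAg, BT, BF4T, BE3C, CASM3C, HDF3CGF, KF3CT, MyoF, Mphg). Compounds were added 1 h before stimulation and left for 24 h (MyoF 48 h; BT 72 h for soluble read-outs or 6 d for IgG). Biomarkers were read by ELISA, cytotoxicity by SRB, PBMC viability and proliferation by Alamar Blue. Each well value was divided by the mean of 8 DMSO control wells on the same plate and log10 transformed; duplicate blinded samples were tested at 4 concentrations.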

[2] = compound: OCCC(F)(F)C(F)(F)C(F)(F)C(F)(F)C(F)(F)C(F)(F)C(F)(F)C(F)(F)F [8:2 Fluorotelomer alcohol]; details: 6700 nM; in DMSO
Method: as §1

[3] = compound: OCCCCC(F)(F)C(F)(F)C(F)(F)C(F)(F)F [4:4 Fluorotelomer alcohol]; details: in DMSO
Method: as §1

[4] = compound: OCCCC(F)(F)C(F)(F)C(F)(F)C(F)(F)C(F)(F)C(F)(F)C(F)(F)C(F)(F)F [3-(Perfluorooctyl)propanol]; details: 6700 nM; in DMSO
Method: as §1

[5] = compound: OCC(F)(F)C(F)(F)C(F)(F)C(F)(F)C(F)(F)C(F)(F)C(F)(F)C(F)(F)C(F)(F)C(F)(F)C(F)(F)F [11:1 Fluorotelomer alcohol]; details: in DMSO
Method: as §1

[6] = compound: FC(F)(I)C(F)(F)C(F)(F)C(F)(F)C(F)(F)C(F)(F)I [1,6-Diiodoperfluorohexane]; details: 6700 nM; in DMSO
Method: as §1

[7] = compound: C=CC(=O)OCCC(F)(F)C(F)(F)C(F)(F)C(F)(F)C(F)(F)C(F)(F)C(F)(F)C(F)(F)F [8:2 Fluorotelomer acrylate]; details: in DMSO
Method: as §1

[8] = compound: OCC(F)(F)C(F)(F)C(F)(F)C(F)(F)C(F)(F)C(F)(F)F [6:1 Fluorotelomer alcohol]; details: in DMSO
Method: as §1

| Test System | level (log10) ([1]; 6700 nM) | level (log10) ([1]; 20000 nM) | level (log10) ([1]; 60000 nM) | level (log10) [2] | level (log10) ([3]; 6700 nM) | level (log10) ([3]; 20000 nM) | level (log10) ([3]; 60000 nM) | level (log10) [4] | level (log10) ([5]; 1100 nM) | level (log10) ([5]; 3300 nM) | level (log10) ([5]; 10000 nM) | level (log10) [6] | level (log10) ([7]; 6700 nM) | level (log10) ([7]; 20000 nM) | level (log10) ([7]; 60000 nM) | level (log10) ([8]; 6700 nM) | level (log10) ([8]; 20000 nM) | level (log10) ([8]; 60000 nM) |
| --- | --- | --- | --- | --- | --- | --- | --- | --- | --- | --- | --- | --- | --- | --- | --- | --- | --- | --- |
| LPS:sTNF-alpha | -0.009 ± 0.017 | 0.001 | 0.0105 ± 0.011 | 0.0175 ± 0.03 | 0.0195 ± 0.11 | 0.0205 ± 0.12 | 0.0155 ± 0.14 | -0.335 ± 0.2 | 0.0075 ± 0.012 | -0.0485 ± 0.013 | -0.105 ± 0.08 | -0.007 | -0.0245 ± 0.025 | -0.029 ± 0.027 | -0.0175 ± 0.012 | -0.0625 ± 0.071 | -0.046 ± 0.09 | -0.0115 ± 0.0092 |
| SAg:CCL2/MCP-1 | -0.0215 ± 0.0035 | -0.0215 ± 0.0064 | 0.0105 ± 0.022 | 0.0025 ± 0.0035 | -0.009 ± 0.018 | -0.002 ± 0.0042 | -0.008 ± 0.027 | -0.0025 ± 0.021 | 0.0095 ± 0.0078 | -0.013 ± 0.044 | 0.0225 ± 0.039 | 0.001 | -0.0115 ± 0.00071 | -0.023 ± 0.013 | -0.0085 ± 0.036 | -0.002 ± 0.0057 | -0.0085 ± 0.005 | 0.0175 ± 0.025 |
| SAg:CD38 | -0.0135 ± 0.015 | -0.011 ± 0.0057 | -0.012 ± 0.02 | -0.004 | -0.001 ± 0.028 | -0.0075 ± 0.018 | -0.0165 ± 0.023 | -0.017 ± 0.016 | -0.0115 ± 0.084 | -0.014 ± 0.073 | 0.0035 ± 0.042 | -0.008 | -0.001 ± 0.0085 | -0.003 ± 0.0071 | -0.004 ± 0.013 | -0.0215 ± 0.088 | -0.0085 ± 0.12 | -0.018 ± 0.17 |
| SAg:CD40 | 0.0005 ± 0.026 | -0.0185 ± 0.011 | -0.0245 ± 0.0064 | 0 ± 0.0042 | 0.01 ± 0.016 | 0.014 ± 0.0042 | 0.005 ± 0.0042 | -0.029 ± 0.025 | -0.038 ± 0.024 | -0.068 | -0.0685 ± 0.042 | -0.018 | -0.0085 ± 0.00071 | -0.0075 ± 0.0021 | -0.01 ± 0.017 | -0.02 ± 0.023 | -0.0075 ± 0.0021 | -0.005 ± 0.033 |
| SAg:CD62E/E-Selectin | 0.004 ± 0.034 | -0.022 ± 0.025 | -0.0045 ± 0.026 | -0.012 | -0.001 ± 0.0014 | -0.01 ± 0.0071 | -0.014 ± 0.028 | -0.014 ± 0.0099 | 0.045 ± 0.0057 | 0.0325 ± 0.018 | 0.0355 ± 0.035 | 0 | -0.0125 ± 0.00071 | 0.0205 ± 0.03 | -0.009 ± 0.025 | 0.0085 ± 0.026 | -0.001 ± 0.0085 | 0 ± 0.025 |
| SAg:CD69 | 0.022 ± 0.0042 | 0.0105 ± 0.011 | 0.0215 ± 0.0035 | -0.018 ± 0.018 | 0.009 ± 0.0057 | -0.002 ± 0.0028 | 0.001 ± 0.02 | -0.036 ± 0.014 | -0.0355 ± 0.021 | -0.0425 ± 0.029 | -0.038 ± 0.023 | -0.026 | -0.01 ± 0.027 | -0.025 ± 0.016 | -0.0295 ± 0.032 | -0.0215 ± 0.011 | -0.0205 ± 0.0092 | -0.0045 ± 0.0064 |
| SAg:CXCL8/IL-8 | 0.002 ± 0.023 | 0.0085 ± 0.0021 | 0.0135 ± 0.00071 | -0.0115 ± 0.047 | 0.0075 ± 0.0021 | 0.002 ± 0.0057 | -0.0015 ± 0.025 | -0.0165 ± 0.028 | 0.0365 ± 0.042 | -0.0005 ± 0.0035 | -0.121 ± 0.28 | -0.012 | -0.021 ± 0.0099 | -0.029 ± 0.0099 | -0.0185 ± 0.043 | -0.035 ± 0.048 | -0.0425 ± 0.025 | -0.013 ± 0.069 |
| SAg:CXCL9/MIG | 0.0015 ± 0.018 | 0.011 ± 0.0042 | 0.014 ± 0.0028 | -0.006 ± 0.0014 | 0.0015 ± 0.0021 | -0.006 ± 0.0071 | 0.0045 ± 0.012 | -0.0205 ± 0.0078 | -0.004 ± 0.03 | -0.0175 ± 0.035 | 0.012 ± 0.03 | -0.008 | -0.0065 ± 0.0035 | -0.017 ± 0.0014 | 0.009 ± 0.0099 | -0.0025 ± 0.021 | -0.013 ± 0.018 | -0.0055 ± 0.0092 |
| SAg:PBMC Cytotoxicity | -0.0115 ± 0.0078 | 0.01 ± 0.017 | 0.0135 ± 0.022 | -0.0295 ± 0.012 | -0.0115 ± 0.015 | 0.014 ± 0.011 | 0.0195 ± 0.03 | -0.003 ± 0.023 | -0.233 ± 0.016 | -0.266 ± 0.02 | -0.268 ± 0.076 | 0.026 | -0.01 ± 0.013 | -0.006 ± 0.027 | -0.0005 ± 0.05 | -0.014 ± 0.013 | -0.014 ± 0.0099 | -0.0295 ± 0.073 |
| SAg:Proliferation | -0.012 ± 0.0014 | 0.013 ± 0.04 | 0.007 ± 0.013 | -0.064 ± 0.028 | -0.026 ± 0.014 | -0.0185 ± 0.0035 | -0.005 ± 0.047 | -0.005 ± 0.023 | -0.248 ± 0.083 | -0.364 ± 0.13 | -0.473 ± 0.35 | -0.028 | 0.0035 ± 0.022 | -0.0625 ± 0.0064 | -0.0055 ± 0.043 | -0.0075 ± 0.005 | -0.0455 ± 0.0035 | -0.0325 ± 0.13 |
| SAg:SRB | -0.0155 ± 0.005 | -0.0135 ± 0.0021 | -0.013 ± 0.017 | -0.0185 ± 0.00071 | 0.0005 ± 0.0021 | 0.0085 ± 0.015 | -0.0055 ± 0.0035 | -0.009 ± 0.0071 | -0.0415 ± 0.0092 | -0.066 ± 0.0028 | -0.065 ± 0.013 | 0.011 | -0.004 ± 0.0028 | -0.0055 ± 0.011 | 0.001 ± 0.014 | 0.0065 ± 0.015 | 0 ± 0.0042 | 0.008 ± 0.0085 |
